Earlier results as cited in patent publication US20140309168A1, “MODIFIED PEPTIDES AND PROTEINS” (AmideBio, LLC, priority 2010, published 2014).

Details: background statement on the marketed peptide

For enfuvirtide, the “in vivo half life” value is given as “about 3.8 hours”.
